Active and inactive are the calls of the source. No cut-off for these calls is given here.
Assays:
[1] = Cytotoxicity against chicken embryo fibroblast cells assessed as reduction in cell growth at 50 uM by CCK-8 assay relative to control; type: toxicity, cell-based, Gallus gallus; settings: chicken embryo fibroblast cells, read-out: Activity
Influenza A virus [2] = assay: Anti-influenza activity against Influenza A virus A/Goose/Guangdong/SH7/2013 (H5N1) infected in chicken embryo fibroblast assessed as inhibition of virus-induced cytopathic effect; type: functional
[3] = Binding affinity to influenza A virus M1 assessed as dissociation constant by SPR analysis
Nucleoprotein = Nucleoprotein (Influenza A virus (strain A/Wilson-Smith/1933 H1N1), UniProt P15682); assay: Binding affinity to influenza A virus Nucleoprotein assessed as dissociation constant by SPR analysis
[4] = Binding affinity to influenza A virus NS2 assessed as dissociation constant by SPR analysis
[5] = Cytotoxicity against chicken embryo fibroblast cells assessed as reduction in cell growth by CCK-8; type: toxicity, cell-based, Gallus gallus
Influenza A virus [6] = assay: Anti-influenza activity against Influenza A virus H5N8 infected in chicken embryo fibroblast assessed as reduction in viral growth; type: functional, organism-based
Influenza A virus [7] = assay: Anti-influenza activity against Influenza A virus H5N1 infected in chicken embryo fibroblast assessed as reduction in viral growth; type: functional, organism-based
Influenza A virus [8] = assay: Anti-influenza activity against Influenza A virus pdm09 infected in chicken embryo fibroblast assessed as reduction in viral growth; type: functional, organism-based
Influenza A virus [9] = assay: Anti-influenza activity against Influenza A virus A/PR/8/34 infected in chicken embryo fibroblast assessed as reduction in viral growth; type: functional, organism-based; settings: A/PR/8/34, Fibroblast
Influenza A virus [10] = assay: Anti-influenza activity against Influenza A virus B/Victoria infected in chicken embryo fibroblast assessed as reduction in viral growth; type: functional, organism-based
Influenza A virus [11] = assay: Anti-influenza activity against Influenza A virus B/Yamagata infected in chicken embryo fibroblast assessed as reduction in viral growth; type: functional, organism-based
Influenza A virus [12] = assay: Anti-influenza activity against Influenza A virus A/Brisbane/10/2007 infected in chicken embryo fibroblast assessed as reduction in viral growth; type: functional, organism-based; settings: A/Brisbane/10/2007, Fibroblast
[13] = target: Exportin-1 (Homo sapiens) (UniProt O14980); assay: Inhibition of CRM1-mediated nuclear export in human A549 cells assessed as distribution of GFP-tagged AID in nucleus at 20 uM administered for 12 hrs and measured after 24 hrs by fluorescence microscopy analysis; type: cell-based; settings: time 36.0 hrs
Influenza A virus [14] = assay: Anti-influenza activity against Influenza A virus A/Goose/Guangdong/SH7/2013 (H5N1) infected in chicken embryo fibroblast at MOI 1 assessed as reduction in NP expression in cytoplasm at 10 uM measured after 10 hr post infection by Western blot analysis; type: functional, organism-based
[15] = target: Single-stranded DNA cytosine deaminase (Homo sapiens) (UniProt Q9GZX7); assay: Induction of GFP-tagged AID degradation in human A549 cells at 20 uM; type: cell-based
[16] = target: Exportin-1 (Homo sapiens) (UniProt O14980); assay: Inhibition of CRM1-mediated nuclear export in human A549 cells assessed as distribution of GFP-tagged AID in cytoplasm at 20 uM administered for 12 hrs and measured after 24 hrs by fluorescence microscopy analysis; type: cell-based
Influenza A virus [17] = assay: Anti-influenza activity against Influenza A virus A/Goose/Guangdong/SH7/2013 (H5N1) infected in chicken embryo fibroblast at MOI 1 assessed as decrease in ratio of cytoplasmic to nuclear NP level at 10 uM measured after 10 hr post infection by Western blot analysis; type: functional, organism-based
Influenza A virus [18] = assay: Anti-influenza activity against Influenza A virus A/Goose/Guangdong/SH7/2013 (H5N1) infected in chicken embryo fibroblast at MOI 1 assessed as distribution of NP in nucleus at 10 uM measured after 10 hr post infection by DAPI staining based assay; type: functional, organism-based
Influenza A virus [19] = assay: Anti-influenza activity against Influenza A virus A/Goose/Guangdong/SH7/2013 (H5N1) infected in chicken embryo fibroblast at MOI 1 assessed as reduction in NP expression in nucleus at 10 uM measured after 10 hr post infection by Western blot analysis; type: functional, organism-based

Exportin-1 (Homo sapiens), sequence (O14980 whole entry): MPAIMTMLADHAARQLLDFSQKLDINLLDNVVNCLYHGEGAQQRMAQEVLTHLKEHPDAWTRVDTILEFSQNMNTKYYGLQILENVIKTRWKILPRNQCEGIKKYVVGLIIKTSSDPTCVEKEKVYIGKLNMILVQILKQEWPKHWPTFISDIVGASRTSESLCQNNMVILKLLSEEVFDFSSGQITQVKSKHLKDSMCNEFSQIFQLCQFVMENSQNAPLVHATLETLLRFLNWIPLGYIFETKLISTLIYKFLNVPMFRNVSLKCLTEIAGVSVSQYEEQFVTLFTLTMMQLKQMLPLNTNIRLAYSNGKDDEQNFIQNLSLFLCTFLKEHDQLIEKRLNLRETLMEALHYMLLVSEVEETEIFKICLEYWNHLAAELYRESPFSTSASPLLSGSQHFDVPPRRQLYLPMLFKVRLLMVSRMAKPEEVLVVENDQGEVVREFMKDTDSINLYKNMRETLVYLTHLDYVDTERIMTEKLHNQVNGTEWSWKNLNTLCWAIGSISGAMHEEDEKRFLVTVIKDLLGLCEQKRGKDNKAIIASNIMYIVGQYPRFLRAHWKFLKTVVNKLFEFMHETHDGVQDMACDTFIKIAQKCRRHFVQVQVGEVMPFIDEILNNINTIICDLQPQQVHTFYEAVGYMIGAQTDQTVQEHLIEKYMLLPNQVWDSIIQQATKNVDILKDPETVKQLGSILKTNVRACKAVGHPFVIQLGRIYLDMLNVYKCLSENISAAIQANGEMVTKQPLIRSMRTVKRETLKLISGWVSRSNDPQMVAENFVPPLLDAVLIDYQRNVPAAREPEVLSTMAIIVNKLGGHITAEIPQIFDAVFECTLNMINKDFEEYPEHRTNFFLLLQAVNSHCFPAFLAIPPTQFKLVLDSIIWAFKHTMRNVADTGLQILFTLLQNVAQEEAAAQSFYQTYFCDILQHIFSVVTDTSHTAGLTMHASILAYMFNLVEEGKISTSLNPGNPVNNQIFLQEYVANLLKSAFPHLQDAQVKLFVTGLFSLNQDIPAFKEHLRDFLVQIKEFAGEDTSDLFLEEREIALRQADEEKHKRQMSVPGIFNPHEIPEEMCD
Nucleoprotein, sequence (P15682 whole entry): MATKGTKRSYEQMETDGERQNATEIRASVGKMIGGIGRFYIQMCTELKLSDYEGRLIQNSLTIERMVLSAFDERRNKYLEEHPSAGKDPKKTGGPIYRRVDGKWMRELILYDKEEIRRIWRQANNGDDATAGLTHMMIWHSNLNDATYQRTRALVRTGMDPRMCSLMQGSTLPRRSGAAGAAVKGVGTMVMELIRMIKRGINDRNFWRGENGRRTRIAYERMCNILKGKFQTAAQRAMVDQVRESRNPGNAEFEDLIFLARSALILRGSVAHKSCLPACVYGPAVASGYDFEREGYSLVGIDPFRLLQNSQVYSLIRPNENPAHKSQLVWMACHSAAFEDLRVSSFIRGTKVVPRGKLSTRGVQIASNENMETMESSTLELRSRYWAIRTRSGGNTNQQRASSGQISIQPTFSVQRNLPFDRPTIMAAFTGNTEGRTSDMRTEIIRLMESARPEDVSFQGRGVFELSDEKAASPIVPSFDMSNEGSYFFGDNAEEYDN
Single-stranded DNA cytosine deaminase (Homo sapiens), sequence (Q9GZX7 whole entry): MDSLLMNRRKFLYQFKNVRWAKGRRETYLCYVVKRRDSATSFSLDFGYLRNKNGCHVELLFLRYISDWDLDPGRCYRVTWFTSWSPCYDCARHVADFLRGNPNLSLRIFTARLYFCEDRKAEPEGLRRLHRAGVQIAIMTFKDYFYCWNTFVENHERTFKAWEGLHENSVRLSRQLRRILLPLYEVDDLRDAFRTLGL

Compound	percent cell viability relative to control at 50 µM [1] [%]	inhibition (INH) (Influenza A virus [2]) [%]	also measured
COc1cccc(OC)c1/C=C/C(=O)/C=C/c1ccc(N2CCCC2)cc1	133	62.89	
COc1cccc(OC)c1/C=C/C(=O)/C=C/c1ccccc1N1CCOCC1	63.3	73.17	
COc1cccc(OC)c1C(=O)N/N=C/c1ccc(C(C)(C)C)cc1	57.7	38.93	
COc1cccc(OC)c1/C=C/C(=O)/C=C/c1ccc([N+](=O)[O-])cc1	99.5	70.62	
COc1cccc(OC)c1/C=C/C(=O)/C=C/c1ccccn1	110	70.92	
COc1cccc(OC)c1C(=O)CCc1ccc(C(C)(C)C)cc1	96.4	13.17	
COc1cccc(OC)c1/C=C/C(=O)/C=C/c1ccc(-c2nccs2)cc1	106	60.3	
COc1cccc(OC)c1C(=O)C1OC1c1ccc(C)cc1 (centres undefined)	62.5	35.03	
COc1cccc(OC)c1/C=C/C(=O)/C=C/c1ccc(C)cc1	97.3	70.3	
COc1ccc(/C=C/C(=O)/C=C/c2c(OC)cccc2OC)cc1-c1ccccc1	85	35.03	
COc1cc(/C=C/C(=O)/C=C/c2c(OC)cccc2OC)ccc1-c1ccccc1	126	54.77	
COc1cccc(OC)c1/C=C/C(=O)/C=C/c1ccc(-n2ccnc2)cc1	106	18.14	
COc1cccc(OC)c1/C=C/C(=O)/C=C/c1cccc(N2CCOCC2)c1	69.5	71.53	
COc1cccc(OC)c1C(=O)C1OC1c1ccc([N+](=O)[O-])cc1 (centres undefined)	61	13.17	
COc1cccc(OC)c1C(=O)N/N=C/c1ccc(C)cc1	61.2	47.74	
COc1cccc(OC)c1/C=C/C(=O)/C=C/c1ccc(-n2cccn2)cc1	104	37.85	
Cc1onc(-c2ccccc2)c1C(=O)N1CCN(c2ccc([N+](=O)[O-])cc2Cl)CC1 [NUCLEOZIN]			Kd [3]: Not Active; Kd (Nucleoprotein): 0.014 µM; Kd [4]: Not Active
COc1cccc(OC)c1/C=C1\CCC/C(=C\c2nc(C)c(C)nc2C)C1=O	72.4	57.06	
COc1cccc(OC)c1C(=O)C1OC1c1nc(C)c(C)nc1C (centres undefined)	64.6	5.53	
COc1cccc(OC)c1/C=C/C(=O)/C=C/c1ccc(-c2ccccc2)cc1C	110	23.04	
COc1cccc(OC)c1/C=C/C(=O)/C=C/c1nc(C)c(C)nc1C	83.8	71.53	
COc1cccc(OC)c1/C=C/C(=O)/C=C/c1ccc(N(C)C)cc1	110	75.34	CC50 [5]: > 100 µM; EC50 (Influenza A virus [6]): 16 µM; EC50 (Influenza A virus [7]): 20.9 µM
COc1cccc(OC)c1C(=O)CCc1ccc(C)cc1	65	29.55	
COc1cccc(OC)c1C(=O)CCc1ccc([N+](=O)[O-])cc1	61	2.26	
COc1cccc(OC)c1/C=C1\CCC/C(=C\c2ccccn2)C1=O	85	25.98	

Compound	percent cell viability relative to control at 50 µM [1] [%]	inhibition (INH) (Influenza A virus [2]) [%]	also measured
COc1cccc(OC)c1/C=C/C(=O)/C=C/c1c(C)cc(-c2ccccc2)cc1C	108	27.71	
COc1cccc(OC)c1/C=C/C(=O)/C=C/c1ccc(-n2ccnc2C)cc1	61	28.99	
COc1cccc(OC)c1/C=C1\CCC/C(=C\c2ccc(C(C)(C)C)cc2)C1=O	61.1	57.57	
COc1cccc(OC)c1/C=C/C(=O)/C=C/c1ccc(N2CCCCC2)cc1	110	60.7	
COc1cccc(OC)c1/C=C1\CCC/C(=C\c2ccc([N+](=O)[O-])cc2)C1=O	66.9	48.07	
COc1cccc(OC)c1C(=O)N/N=C/c1ccccn1	81.9	13.78	
COc1cccc(OC)c1C(=O)/C=C/c1nc(C)c(C)nc1C	39.1		CC50 [5]: < 50 µM; EC50 (Influenza A virus [8]): 1.34 µM; EC50 (Influenza A virus [9]): 3.51 µM; EC50 (Influenza A virus [10]): 3.87 µM; EC50 (Influenza A virus [6]): 10.8 µM; EC50 (Influenza A virus [7]): 7.34 µM; EC50 (Influenza A virus [11]): 2.47 µM; EC50 (Influenza A virus [12]): 3.69 µM
COc1cccc(OC)c1/C=C/C(=O)/C=C/c1ccc(N2CCN(C)CC2)cc1	94.7	57.74	
COc1cccc(OC)c1C(=O)N/N=C/c1nc(C)c(C)nc1C	85	62.26	
COc1cccc(OC)c1/C=C/C(=O)/C=C/c1ccc(-c2ccccc2)c(C)c1	113	58.93	
COc1cccc(OC)c1C(=O)C1OC1c1ccccn1 (centres undefined)	71.8	27.71	
CCC(=C/[C@H](C)C/C=C/C(C)=C/[C@@H](C)C(=O)[C@@H](C)[C@H](O)[C@@H](C)C/C(C)=C/C(=O)O)/C=C/[C@@H]1OC(=O)C=C[C@@H]1C			inhibition [13]: Active
COc1cccc(OC)c1C(=O)N/N=C/c1ccc([N+](=O)[O-])cc1	71.7	50.3	
COc1ccc(/C=C/C(=O)/C=C/c2c(OC)cccc2OC)cc1	108	26.89	
COc1cccc(OC)c1C(=O)CCc1ccccn1	74.6	27.71	
COc1cccc(OC)c1/C=C/C(=O)/C=C/c1ccc(-c2cccnc2)cc1	111	25.98	
CCOc1ccc(/C=C/C(=O)/C=C/c2c(OC)cccc2OC)cc1	117	51.33	CC50 [5]: > 100 µM; Activity (Influenza A virus [14]): Active; inhibition [13]: inactive; EC50 (Influenza A virus [8]): 4.56 µM; Activity [15]: Active; EC50 (Influenza A virus [9]): 7.31 µM; EC50 (Influenza A virus [10]): 3.13 µM; Kd [3]: Not Active; EC50 (Influenza A virus [6]): 9.6 µM; EC50 (Influenza A virus [7]): 14.9 µM; EC50 (Influenza A virus [11]): 4.82 µM; Kd (Nucleoprotein): 0.239 µM; inhibition [16]: inactive; Activity (Influenza A virus [17]): Active; Kd [4]: Not Active; Activity (Influenza A virus [18]): Active; Activity (Influenza A virus [19]): Active; EC50 (Influenza A virus [12]): 3.69 µM
COc1cccc(OC)c1/C=C/C(=O)/C=C/c1ccc(C(C)(C)C)cc1	86	72.89	
CCN(CC)c1ccc(/C=C/C(=O)/C=C/c2c(OC)cccc2OC)cc1	117	71.5	CC50 [5]: > 100 µM; EC50 (Influenza A virus [6]): 13.6 µM; EC50 (Influenza A virus [7]): 18.1 µM
CCCOc1ccc(/C=C/C(=O)/C=C/c2c(OC)cccc2OC)cc1	149	41.16	
COc1cccc(OC)c1/C=C/C(=O)/C=C/c1ccc(-c2ccccc2)cc1	104	51.69	
COc1cccc(OC)c1C(=O)CCc1nc(C)c(C)nc1C	71	18.14	
COc1cccc(OC)c1C(=O)C1OC1c1ccc(C(C)(C)C)cc1 (centres undefined)	85.8	28.99	
COc1cccc(OC)c1/C=C1\CCC/C(=C\c2ccc(C)cc2)C1=O	67.2	46.7	
